# Literature values as cited in PMC8557155 (Annals of Nuclear Medicine, 2021).
# Details: rat model, lysine-protected rats; cited from earlier work
smiles,measurement,value
NCCCC[C@H](N)C(=O)O [lysine],Reduction of 177Lu quantified in the kidney,approximately 45%
